In patent US10046005B2, “Composition and method of use for combinations of anti-viral protease, polymerase inhibitors and natural bioactive compounds in the treatment of hepatitis C infection” (priority 2014, dated 2018):

Key:
[1] = Dissolution of Catvira film coated tablets (Ribavirin and Sofosbuvir released); type: physicochemical
Procedure: • 1.1. Description: Yellow to deep yellow, oblong, biconvex, film coated tablets • 1.2. Determination of Average of Weight: (Limit: 1000 mg±5%) Proceed as BP2014 • 1.3. Determination of Disintegration Time: (Limit: NMT 30 min) Proceed as USP 35 • 1.4. Determination of Dissolution test for Sofosbuvir and Ribavirin:— Conditions of Dissolution:— • USP Apparatus: II (Paddle) • Speed: […] & Materials:— • Methanol HPLC Grade. • Acetonitrile HPLC Grade • Tetrahydrofuran HPLC Grade. • Ammonium acetate • Sofosbuvir and Ribavirin working standard. Apparatus & Equipement:— • Calibrated Analytical balance accurate to±0.1 mg • HPLC:—Waters UV detector or equivalent • Column: Symmetry (C18 (5 μm) 4.6×250 mm) or equivalent. • Sonicator with temperature control • Volumetric flasks • Pipettes class A Chromatographic Conditions:— • Column: Symmetry (C18 (5 μm) 4.6×250 mm) or equivalent. • Flow rate: 0.8 ml/min. • Detector: UV at λ242 nm • Injection volume: 10 μl • Mobile phase: (Acetonitrile: Tetrahydrofuran: Ammonium Acetate) (10:40:50) • Acetate Buffer: into 1000 ml volumetric flask, weight 1 gm of Ammonium Acetate buffer, add 900 ml purified water shake to dissolve then complete to the volume by the same solvent, adjust pH 3.5 by Glacial Acetic acid. […]

HCV = HCV viral entry into human host cells; type: cell-based

Row | Structure (SMILES) | Dissolution ([1]; pH 1.2, 5 min) [%] | Dissolution ([1]; pH 1.2, 10 min) [%] | Dissolution ([1]; pH 1.2, 15 min) [%] | Dissolution ([1]; pH 1.2, 20 min) [%] | Dissolution ([1]; pH 1.2, 30 min) [%] | Dissolution ([1]; pH 1.2, 45 min) [%] | Dissolution ([1]; pH 1.2, 60 min) [%] | Dissolution ([1]; pH 1.2, 90 min) [%] | Dissolution ([1]; pH 4.5, 5 min) [%] | Dissolution ([1]; pH 4.5, 10 min) [%] | Dissolution ([1]; pH 4.5, 15 min) [%] | Dissolution ([1]; pH 4.5, 20 min) [%] | Dissolution ([1]; pH 4.5, 30 min) [%] | Dissolution ([1]; pH 4.5, 45 min) [%] | Dissolution ([1]; pH 4.5, 60 min) [%] | Dissolution ([1]; pH 4.5, 90 min) [%] | Dissolution ([1]; pH 6.8, 5 min) [%] | Dissolution ([1]; pH 6.8, 10 min) [%] | Dissolution ([1]; pH 6.8, 15 min) [%] | Dissolution ([1]; pH 6.8, 20 min) [%] | also measured
1 | NC(=O)c1ncn([C@@H]2O[C@H](CO)[C@@H](O)[C@H]2O)n1 [Ribavirin, 1-[(2R,3R,4S,5R)-3,4-dihydroxy-5-(hydroxymethyl)oxolan-2-yl]-1H-1,2,4-triazole-3-carboxamide] | 25.34 | 43.13 | 62.29 | 80.69 | 100.74 | 101.36 | 101.87 | 101.97 | 29.46 | 47.54 | 68.75 | 85.33 | 101.35 | 101.42 | 102.72 | 102.97 | 59.24 | 76.73 | 88.40 | 92.31 | Dissolution ([1]; pH 6.8, 30 min): 93.23%; Dissolution ([1]; pH 6.8, 45 min): 93.09%; Dissolution ([1]; pH 6.8, 60 min): 93.31%; Dissolution ([1]; pH 6.8, 90 min): 94.02%
2 | O=C(O[C@@H]1Cc2c(O)cc(O)cc2O[C@@H]1c1cc(O)c(O)c(O)c1)c1cc(O)c(O)c(O)c1 [EGCG, (−)-Epigallocatechin Gallate] |  |  |  |  |  |  |  |  |  |  |  |  |  |  |  |  |  |  |  |  | HCV viral entry into human host cells (HCV): effectively suppressed
3 | CC(C)OC(=O)[C@H](C)N[P@](=O)(OC[C@H]1O[C@@H](n2ccc(=O)[nH]c2=O)[C@](C)(F)[C@@H]1O)Oc1ccccc1 [Sofosbuvir, Isopropyl (2S)-2-[(2R, 3R, 4R, 5R)-5-(2,4-dioxopyrimidin-1-yl)-4-fluoro-3-hydroxy-4-methyl-tetrahydrofuran-2-yl] methoxy-phenoxy-phosphoryl] amino] propanoate] | 13.82 | 28.77 | 44.57 | 63.43 | 85.39 | 86.07 | 88.13 | 90.79 | 15.00 | 33.94 | 52.46 | 74.22 | 98.95 | 100.44 | 101.08 | 102.04 | 36.18 | 65.56 | 83.04 | 97.55 | Dissolution ([1]; pH 6.8, 30 min): 99.80%; Dissolution ([1]; pH 6.8, 45 min): 100.04%; Dissolution ([1]; pH 6.8, 60 min): 100.47%; Dissolution ([1]; pH 6.8, 90 min): 100.39%
